Legend:
Aβ1-42 protein = target: T1, Aβ1-42 protein (Homo sapiens, UniProt P05067); experiment: Percentage of Aβ1-42 protein fibrillization by ThT fluorescence (FIG. 18, 19); assay type: biochemical; design: percentage of Aβ fibrillization compared to the control: unit of the concentration uncertain; conditions: for effect on Aβ protein aggregation and/or tau protein accumulation: incubated with Aβ1-42 for 24 hours at 37° C.
T1 construct: aggregated amyloid beta 1-42 (Aβ1-42)
Experimental: FIG. 18 is an analysis showing a percentage of Aβ1-42 protein fibrillization using thioflavin T (ThT) florescence in various samples. The sample on the left is a control of Aβ1-42 protein. […] The third sample from the left is Aβ protein treated with 10 mM Aconitine. And the fourth sample from the left is Aβ1-42 protein treated with 20 mM Aconitine.
FIG. 19 is an analysis showing an amount of Aβ1-42 protein fibrillization using thioflavin T (ThT) fluorescence in various samples. The sample on the left is a control of Aβ1-42 protein. The second sample from the left is Aβ1-42 protein treated with 200 mM of bergenin. The third sample from the left is Aβ1-42 protein treated with 300 mM bergenin.
The various compounds were incubated with Aβ1-42 for 24 hours at 37° C. to determine the effect of compounds on defibrillation. Further, testing was done to determine an effect of the compounds on tau protein.
Referring to FIG. 18, FIG. 18 is a bar graph 1800 showing a percentage of Aβ protein fibrillization in various samples. The sample on the left is a control 1805 of Aβ protein. […] The third sample 1815 from the left is Aβ protein treated with 10 mM aconitine. And the fourth sample 1820 from the left is Aβ protein treated with 20 mM aconitine.
The intensity for the control 1805 is normalized to 100.
The third sample 1815 includes a concentration of 10 mM aconitine. […] The fourth sample 1820 includes a concentration of 20 mM aconitine.
Referring to FIG. 19, FIG. 19 is a bar graph 1900 showing an amount of Aβ protein in various samples. The sample on the left is a control 1905 of Aβ protein. The second sample 1910 from the left is Aβ protein treated with 200 mM bergenin. The third sample 1915 from the left is Aβ protein treated with 300 mM bergenin.
The control 1905 on the left side of the bar graph 1900, which just contains Aβ protein is normalized to 100. The measurement of the percentage of the Aβ protein in the control 1905 that aggregates into Aβ fibrils is compared against solutions containing bergenin.
The second sample 1910 contains 200 mM bergenin. […] The third sample 1915 contained 300 mM bergenin.

[1] = test system: neurons with Aβ treatment; experiment: Cell survival assay of various compositions (FIG. 29); assay type: cell-based; conditions: Aβ control 61.7592%
Experimental: (§1) Orientin, vitexin, and bergenin were detected as possible targets based on identification via Liquid Chromatography—mass Spectrometry (LC-MS) from Synaptecx-227 and verified via mass spectrometric (MS) analysis. Aβ1-42 defibrillation analysis and Aβ1-42 cell survival were performed for various combinations of the above identified targets.
In the control sample with Aβ treatment, the % of surviving neurons is 61.7592% (p value<0.0001 ****).

Aβ = target: T2, Aβ (Homo sapiens, UniProt P05067); experiment: Fibrillization assay of various compositions (FIG. 28); assay type: biochemical; conditions: control 100% fibrillization
T2 construct: aggregated amyloid beta 1-42 (Aβ1-42)
Experimental: as §1
The sample treated with a 20 micromolar concentration of orientin, 20 micromolar concentration of vitexin, and 50 micromolar concentration of bergenin decreased Aβ fibrillization by 48.9989% (p value<0.0001 ****).

T2 sequence (P05067 672-713): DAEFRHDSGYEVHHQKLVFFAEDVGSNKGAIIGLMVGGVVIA
T1 sequence (P05067 672-713): as above

Compound	effect on Aβ protein aggregation and/or tau protein accumulation (Aβ1-42 protein)	decrease of Aβ fibrillization (Aβ; 20 micromolar) [%]	cell survival ([1]; 20 micromolar) [%]	further results
CCN1C[C@]2(COC)[C@H](O)C[C@H](OC)[C@@]34[C@@H]5C[C@@]6(O)[C@H](OC(=O)c7ccccc7)[C@@H]5[C@@](OC(C)=O)([C@@H]([C@H](OC)[C@H]23)[C@@H]14)[C@@H](O)[C@@H]6OC [aconitine]	reducing a percentage of Aβ protein aggregation as compared to a control and/or reducing a percentage of tau protein accumulation as compared to a control			percentage of Aβ fibrillization compared to the control (Aβ1-42 protein; 10 (unit uncertain)): 82.0%; percentage of Aβ fibrillization compared to the control (Aβ1-42 protein; 20 (unit uncertain)): 74.8%
O=C(N[C@@H](Cc1ccccc1)C(=O)N[C@H](CO)Cc1ccccc1)c1ccccc1 [aurantiamide]		24.8578		cell survival ([1]; 10 micromolar): 71.5173%
COc1c(O)cc2c(c1O)[C@@H]1O[C@H](CO)[C@@H](O)[C@H](O)[C@H]1OC2=O [bergenin]	reducing a percentage of Aβ protein aggregation as compared to a control and/or reducing a percentage of tau protein accumulation as compared to a control			cell survival ([1]; 50 micromolar): 76.2308%; decrease of Aβ fibrillization (Aβ; 50 micromolar): 31.9532%
O=c1cc(-c2ccc(O)c(O)c2)oc2c([C@@H]3O[C@H](CO)[C@@H](O)[C@H](O)[C@H]3O)c(O)cc(O)c12 [orientin]		29.2843	77.8195	
O=c1cc(-c2ccc(O)cc2)oc2c([C@@H]3O[C@H](CO)[C@@H](O)[C@H](O)[C@H]3O)c(O)cc(O)c12 [vitexin]		28.8579	73.4208	
swatinine	reducing a percentage of Aβ protein aggregation as compared to a control and/or reducing a percentage of tau protein accumulation as compared to a control			
